Test results taken from publication PMC11145868, “Protein target similarity is positive predictor of in vitro antipathogenic activity: a drug repurposing strategy for Plasmodium falciparum” (Journal of Cheminformatics, 2024).
Counter-ions that a name gives are not always drawn. Like-named read-outs stand apart in the source and are kept apart here.

Tests used:
P. falciparum Dd2-HLH [1] = assay: microbe, parasite or virus in culture; format: cell-based, Plasmodium falciparum; details: Plasmodium falciparum, DD2, 72 h, read-out: Blood stage 72h EC50
[2] = test system: P. berghei-luciferase sporozoites; assay: microbe, parasite or virus in culture; format: cell-based, Plasmodium berghei; details: Plasmodium berghei
[3] = Mammalian cell cytotoxicity assay, HEK293T (CellTiter-Glo, 72 h); details: human, HEK293T cells
[4] = Mammalian cell cytotoxicity assay, HepG2 (CellTiter-Glo, 72 h); details: human, HepG2 cells
P. falciparum Dd2-HLH [5] = assay: microbe, parasite or virus in culture; format: cell-based, Plasmodium falciparum; details: Plasmodium falciparum
[6] = HepG2, liver-stage parasites, 48 hours in culture, read-out: Liver stage 48h EC50
[7] = DD2, 48 h, read-out: Blood stage 48h EC50
[8] = liver-stage parasites, 48 h in culture, read-out: Liver 48 h EC50
[9] = DD2, Hec50, 48 h, read-out: Blood stage 48 h EC50
[10] = DD2, read-out: EC50 (antiplasmodial, quoted in discussion from Supplementary Table 1)

SMILES	EC50 (P. falciparum Dd2-HLH [1])	EC50 [2, 6]	CC50 at 72 h [3]	CC50 at 72 h [4]	EC50 (P. falciparum Dd2-HLH [5]; [7])	EC50 [2, 8]	EC50 (P. falciparum Dd2-HLH [5]; [9])	EC50 (P. falciparum Dd2-HLH [5]; [10])	EC50 ([2]; HepG2, 48 h, read-out: Liver stage 48h EC50)
c1cc(-c2nc3ccc(-c4ccc5nc(-c6ccncc6)[nH]c5c4)cc3[nH]2)ccn1 [Ridinilazole]	90 nM	215 nM	> 9950 nM	3110 nM					
CN(C)CCCN1c2ccccc2CCc2ccccc21 [Imipramine hydrochloride]	963 nM	> 10000 nM	> 9950 nM	> 9950 nM	180 nM				
CO[C@H]1C(=O)[C@]2(C)[C@@H](OC)C[C@H]3OC[C@@]3(OC(C)=O)[C@H]2[C@H](OC(=O)c2ccccc2)[C@]2(O)C[C@H](OC(=O)[C@H](O)[C@@H](NC(=O)OC(C)(C)C)c3ccccc3)C(C)=C1C2(C)C [Cabazitaxel, reference compound]	8 nM		> 9950 nM	784 nM		43 nM	6 nM		
CCCCN(CCCC)CCC(O)c1cc2c(Cl)cc(Cl)cc2c2cc(C(F)(F)F)ccc12 (centres unmarked) [Halofantrine HCl]	1 nM	1880 nM	> 9950 nM	> 9950 nM					
CC(=O)O[C@H]1C(=O)[C@@]2(C)[C@H]([C@H](OC(=O)c3ccccc3)[C@]3(O)C[C@H](OC(=O)[C@H](O)[C@@H](NC(=O)c4ccccc4)c4ccccc4)C(C)=C1C3(C)C)[C@]1(OC(C)=O)CO[C@@H]1C[C@@H]2O [Paclitaxel]	186 nM	7530 nM	> 9950 nM	7040 nM	164 nM				
c1ccc(Cn2c(N3CCNCC3)nc3ccccc32)cc1 [Lerisetron]	267 nM	1130 nM	> 9950 nM	236 nM	144 nM				
N[C@H](C(=O)O)[C@@H]1CC(Cl)=NO1 [Acivicin]	545 nM	1100 nM	7730 nM	1700 nM	209 nM				
CC(=O)Nc1cccc(-n2c(=O)n(C3CC3)c(=O)c3c(Nc4ccc(I)cc4F)n(C)c(=O)c(C)c32)c1 [Trametinib dimethyl sulfoxide]	300 nM		> 9950 nM	119 nM	160 nM				
C[C@@H](Oc1ccc2[nH]nc(/C=C/c3cnn(CCO)c3)c2c1)c1c(Cl)cncc1Cl [LY-2874455]	733 nM	2360 nM	875 nM		512 nM				
C#Cc1cccc(Nc2ncnc3cc(OC)c(OCCCCCCC(=O)NO)cc23)c1 [CUDC-101]	52 nM	349 nM	408 nM		41 nM				
CC(C)C(=O)OCC(=O)[C@@]12O[C@H](C3CCCCC3)O[C@@H]1C[C@H]1[C@@H]3CCC4=CC(=O)C=C[C@]4(C)[C@H]3[C@@H](O)C[C@@]12C [Ciclesonide]	661 nM	3330 nM		> 9950 nM	199 nM				
CCc1cc2c(cc1CC)CC(NC[C@H](O)c1ccc(O)c3[nH]c(=O)ccc13)C2 [Indacaterol maleate]	951 nM	3110 nM	> 9950 nM		682 nM				
CCN(CC)CC[n+]1ccc2c(C)c3[nH]c4ccc(O)cc4c3c(C)c2c1 [Datelliptium Chloride]	193 nM	> 10000 nM	4690 nM	505 nM					
C=CCn1c(=O)c2cnc(Nc3ccc(N4CCN(C)CC4)cc3)nc2n1-c1cccc(C(C)(C)O)n1 [MK-1775]	681 nM	6100 nM	310 nM		595 nM				
CN(C)c1ccc2nc3ccc(=[N+](C)C)cc-3sc2c1 [Methylthioninium Chloride]	118 nM	1050 nM	1770 nM		67 nM				
COc1ncc(-c2ccc3nccc(-c4ccnnc4)c3c2)cc1NS(=O)(=O)c1ccc(F)cc1F [omipalisib, reference compound]	158 nM	230 nM	46 nM					159 nM	
Cn1cc(CNCC2CCN(c3ncc(C(=O)NO)cn3)CC2)c2ccccc21 [Quisinostat, reference compound]	3 nM		33 nM			8 nM	1 nM		

SMILES	EC50 (P. falciparum Dd2-HLH [1])	EC50 [2, 6]	CC50 at 72 h [3]	CC50 at 72 h [4]	EC50 (P. falciparum Dd2-HLH [5]; [7])	EC50 [2, 8]	EC50 (P. falciparum Dd2-HLH [5]; [9])	EC50 (P. falciparum Dd2-HLH [5]; [10])	EC50 ([2]; HepG2, 48 h, read-out: Liver stage 48h EC50)
CC(C)n1nc(-c2ccc3oc(N)nc3c2)c2c(N)ncnc21 [Sapanisertib]	305 nM	665 nM	102 nM		187 nM				
CCOc1cc2ncc(C#N)c(Nc3ccc(OCc4cccc(F)c4)c(Cl)c3)c2cc1NC(=O)/C=C/CN(C)C [HKI-357]	619 nM	573 nM	1720 nM		212 nM				
CC(C)C[C@H](NC(=O)[C@H](Cc1ccccc1)NC(=O)c1cnccn1)B(O)O [Bortezomib]	82 nM	12 nM	25 nM		91 nM				
CNCCCC1c2ccccc2C=Cc2ccccc21 [Protriptyline hydrochloride]	959 nM		> 9950 nM		430 nM				> 10000 nM
O=C(CCCCCCNC(=O)c1cnc(N(c2ccccc2)c2ccccc2)nc1)NO [Ricolinostat]	770 nM	4370 nM	> 9950 nM		555 nM				
CCOC(=O)[C@H]1O[C@@H]1C(=O)N[C@@H](CC(C)C)C(=O)NCCC(C)C [aloxistatin, reference compound]	69 nM	> 10000 nM	> 9950 nM					31 nM	
FC(F)c1nc2ccccc2n1-c1nc(N2CCOCC2)nc(N2CCOCC2)n1 [ZSTK-474]	841 nM	973 nM	762 nM		238 nM				
C/C(=C\c1csc(C)n1)[C@@H]1C[C@@H]2O[C@]2(C)CCC[C@H](C)[C@H](O)[C@@H](C)C(=O)C(C)(C)[C@@H](O)CC(=O)N1 [Ixabepilone]		867 nM	15 nM	7 nM	42 nM				
CN(C)c1ccc(C(=C2C=CC(=[N+](C)C)C=C2)c2ccc(N(C)C)cc2)cc1 [Gentian violet]	456 nM	214 nM	136 nM		104 nM				
CC[C@H](C(=O)N1CCCC[C@H]1C(=O)O[C@H](CCc1ccc(OC)c(OC)c1)c1cccc(OCC(=O)NCCNC(=O)COc2cccc([C@@H](CCc3ccc(OC)c(OC)c3)OC(=O)[C@@H]3CCCCN3C(=O)[C@@H](CC)c3cc(OC)c(OC)c(OC)c3)c2)c1)c1cc(OC)c(OC)c(OC)c1 [Rimiducid]	411 nM	> 10000 nM	> 9950 nM		59 nM				
O=C(/C=C/c1cccc(S(=O)(=O)Nc2ccccc2)c1)NO [Belinostat]	188 nM	1830 nM	1290 nM		90 nM				
COCCn1c2c([n+](Cc3cnccn3)c1C)C(=O)c1ccccc1C2=O [Sepantronium bromide]	82 nM	10 nM	56 nM		21 nM				
CN1CCN(C2CCN(C(=O)Nc3cc(Oc4ccc(NC(=O)C5(C(=O)Nc6ccc(F)cc6)CC5)c(F)c4)ccn3)CC2)CC1 [Golvatinib]	1020 nM	2840 nM	4360 nM		738 nM				
CNCCCN1c2ccccc2CCc2ccccc21 [Desipramine]	622 nM	3330 nM	> 9950 nM		238 nM				
CN(NC(=O)CC(=O)NN(C)C(=S)c1ccccc1)C(=S)c1ccccc1 [Elesclomol]	437 nM	> 10000 nM	169 nM		196 nM				
O=C1c2c(O)ccc(O)c2C(=O)c2c(NCCNCCO)ccc(NCCNCCO)c21 [Mitoxantrone]	357 nM	1720 nM	217 nM		239 nM				
